From patent US10899710B2, “Pyridines and their use in the treatment of cancer” (The United States of America, as represented by the …, priority 2015, dated 2021)
Counter-ions that a name gives are not always drawn. Like-named read-outs stand apart in the source and are kept apart here.

Key:
[1] = biological target: T1, recombinant thioredoxin reductase 1 (TrxR1) (Homo sapiens, UniProt Q16881); experiment: Inhibition of recombinant TrxR1 (DTNB assay); type: biochemical; conditions: read-out: TrxR inhibition (IC50)
T1 sequence (Q16881 151-649 limits assumed): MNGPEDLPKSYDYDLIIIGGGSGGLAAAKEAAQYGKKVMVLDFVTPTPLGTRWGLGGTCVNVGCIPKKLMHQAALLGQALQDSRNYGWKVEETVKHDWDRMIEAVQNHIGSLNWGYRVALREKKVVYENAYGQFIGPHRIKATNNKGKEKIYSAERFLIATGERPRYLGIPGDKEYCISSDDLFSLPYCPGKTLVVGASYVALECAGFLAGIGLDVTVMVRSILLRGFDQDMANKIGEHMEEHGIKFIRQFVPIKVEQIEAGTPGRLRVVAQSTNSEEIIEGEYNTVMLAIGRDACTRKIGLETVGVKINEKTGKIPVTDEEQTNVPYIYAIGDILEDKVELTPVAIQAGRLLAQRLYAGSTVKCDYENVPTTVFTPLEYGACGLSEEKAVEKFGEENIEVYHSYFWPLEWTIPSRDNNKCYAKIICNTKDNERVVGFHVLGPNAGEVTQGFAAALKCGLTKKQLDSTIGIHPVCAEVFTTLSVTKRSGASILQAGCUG
Description: Small molecule inhibition of recombinant thioredoxin reductase 1 (TrxR1) and gluthathione reductase (GR) was examined in 96-well plate format. 15 nM TrxR1 was incubated in the presence of 250 μM NADPH, 0.1 mg/ml BSA, and various concentrations of the compound of Example 1 (1% DMSO final) in 50 mM Tris (pH 7.5) and 2 mM EDTA buffer for 15 minutes. Following the incubation period, 2.5 mM DTNB was added to each well and the change in O.D. at 412 nm was followed. Percent activity was determined using DMSO vehicle and no TrxR1 (blank) controls. 2 nM GR was incubated in the presence of 250 μM NADPH, 0.1 mg/ml BSA, and various concentrations of compounds (1% DMSO final) in 50 mM Tris (pH 7.5) and 2 mM EDTA buffer for 15 minutes. Following the incubation period, 1 mM GSSG was added to each well and the change in O.D. at 340 nm was followed. Percent activity was determined using DMSO vehicle and no GR (blank) controls.

FaDu cell line = experiment: Cell viability inhibition, FaDu cell line; type: cell-based; conditions: Homo sapiens, Biological Example 4, 72 hrs
Description: (§1) Cell lines were plated 2000 cells/well in 96-well black optical plates in the presence of 10% FBS media containing 25 nM selenite. The following day cells were treated with various concentrations of the compound of Example 1 (0.1% DMSO final) and incubated for 72 hrs. After the incubation Cell-Quanti Blue reagent was added to each well and incubated for additional 3 hrs. Fluorescence was read ex:530 nm/em:590 nm, and percent of viability was determined using DMSO vehicle and no cell (blank) controls.
Using the assays described in Biological Example 1 to assess inhibition of recombinant TrxR1 and GR, the following IC50 values were obtained for the examples described herein. Further, following the protocol described in Biological Example 2, the following IC50 values were obtained for inhibition of cell viability using the FaDu cell line.

CCRF-CEM = experiment: Growth inhibition GI50, CCRF-CEM; type: cell-based; conditions: Homo sapiens, Leukemia
Description: as §1
(§2) Further results obtained in similar experiments were as indicated below (GI50 refers to concentration of compound yielding 50% growth inhibition; E denotes an exponent to the base 10).

HL-60(TB) = experiment: Growth inhibition GI50, HL-60(TB); type: cell-based; conditions: Homo sapiens, Leukemia
Description: as §1, §2

K-562 = experiment: Growth inhibition GI50, K-562; type: cell-based; conditions: Homo sapiens, K562, Leukemia
Description: as §1, §2

MOLT-4 = experiment: Growth inhibition GI50, MOLT-4; type: cell-based; conditions: Homo sapiens, Leukemia
Description: as §1, §2

SR = experiment: Growth inhibition GI50, SR; type: cell-based; conditions: Homo sapiens, Leukemia
Description: as §1, §2

HOP-62 = experiment: Growth inhibition GI50, HOP-62; type: cell-based; conditions: Homo sapiens, Non-Small Cell Lung Cancer
Description: as §1, §2

NCI-H460 = experiment: Growth inhibition GI50, NCI-H460; type: cell-based; conditions: Homo sapiens, Non-Small Cell Lung Cancer
Description: as §1, §2

HCC-2998 = experiment: Growth inhibition GI50, HCC-2998; type: cell-based; conditions: Homo sapiens, Colon Cancer
Description: as §1, §2

KM12 = experiment: Growth inhibition GI50, KM12; type: cell-based; conditions: Homo sapiens, Colon Cancer
Description: as §1, §2

SW-620 = experiment: Growth inhibition GI50, SW-620; type: cell-based; conditions: Homo sapiens, Colon Cancer
Description: as §1, §2

SF-268 = experiment: Growth inhibition GI50, SF-268; type: cell-based; conditions: Homo sapiens, CNS Cancer
Description: as §1, §2

SF-539 = experiment: Growth inhibition GI50, SF-539; type: cell-based; conditions: Homo sapiens, CNS Cancer
Description: as §1, §2

SNB-75 = experiment: Growth inhibition GI50, SNB-75; type: cell-based; conditions: Homo sapiens, CNS Cancer
Description: as §1, §2

LOX IMVI = experiment: Growth inhibition GI50, LOX IMVI; type: cell-based; conditions: Homo sapiens, Melanoma
Description: as §1, §2

M14 = experiment: Growth inhibition GI50, M14; type: cell-based; conditions: Homo sapiens, Melanoma
Description: as §1, §2

SK-MEL-28 = experiment: Growth inhibition GI50, SK-MEL-28; type: cell-based; conditions: Homo sapiens, Melanoma
Description: as §1, §2

OVCAR-3 = experiment: Growth inhibition GI50, OVCAR-3; type: cell-based; conditions: Homo sapiens, Ovarian Cancer
Description: as §1, §2

OVCAR-8 = experiment: Growth inhibition GI50, OVCAR-8; type: cell-based; conditions: Homo sapiens, Ovarian Cancer
Description: as §1, §2

SK-OV-3 = experiment: Growth inhibition GI50, SK-OV-3; type: cell-based; conditions: Homo sapiens, Ovarian Cancer
Description: as §1, §2

786-0 = experiment: Growth inhibition GI50, 786-0; type: cell-based; conditions: Homo sapiens, Renal Cancer
Description: as §1, §2

ACHN = experiment: Growth inhibition GI50, ACHN; type: cell-based; conditions: Homo sapiens, Renal Cancer
Description: as §1, §2

TK-10 = experiment: Growth inhibition GI50, TK-10; type: cell-based; conditions: Homo sapiens, Renal Cancer
Description: as §1, §2

UO-31 = experiment: Growth inhibition GI50, UO-31; type: cell-based; conditions: Homo sapiens, Renal Cancer
Description: as §1, §2

MDA-MB-231/ATCC = experiment: Growth inhibition GI50, MDA-MB-231/ATCC; type: cell-based; conditions: Homo sapiens, Breast Cancer
Description: as §1, §2

HS 578T = experiment: Growth inhibition GI50, HS 578T; type: cell-based; conditions: Homo sapiens, Breast Cancer
Description: as §1, §2

BT-549 = experiment: Growth inhibition GI50, BT-549; type: cell-based; conditions: Homo sapiens, Breast Cancer
Description: as §1, §2

MDA-MB-468 = experiment: Growth inhibition GI50, MDA-MB-468; type: cell-based; conditions: Homo sapiens, Breast Cancer
Description: as §1, §2

[2] = mouse, in vivo, iv, 10 mg/kg
Description: Fox Chase male severe combined immunodeficiency (SCID, Charles River, #250) mice were inoculated with 1×10^6 FaDu cells in PBS at a pre-shaved region located at the anterior lateral thoracic wall. After 13 days of growth, tumors were caliper measured and treatments were initiated. […] Mouse health status was monitored daily, weight was measured, and tumor volume was recorded from caliper measurements.

Compound: COc1ccc([N+](=O)[O-])c(S(=O)(=O)c2ccc(Cl)cc2)n1 [Example 1, 2-((4-Chlorophenyl)sulphonyl)-6-methoxy-3-nitropyridine Hydrochloride]
- IC50 ([1]; Biological Example 1, 15 nM TrxR1, 15 minutes incubation): 0.012 µM
- IC50 ([1]; Biological Example 4): 0.021 µM
- IC50 (FaDu cell line): 2.99 µM
- GI50 (CCRF-CEM): 2.93 µM
- GI50 (HL-60(TB)): 6.81 µM
- GI50 (K-562): 3.02 µM
- GI50 (MOLT-4): 3.59 µM
- GI50 (SR): 2.99 µM
- GI50 (HOP-62): 16.6 µM
- GI50 (NCI-H460): 14.6 µM
- GI50 (HCC-2998): 8.38 µM
- GI50 (KM12): 14 µM
- GI50 (SW-620): 2.06 µM
- GI50 (SF-268): 4.57 µM
- GI50 (SF-539): 3.39 µM
- GI50 (SNB-75): 11 µM
- GI50 (LOX IMVI): 1.98 µM
- GI50 (M14): 3.05 µM
- GI50 (SK-MEL-28): 3.57 µM
- GI50 (OVCAR-3): 2.33 µM
- GI50 (OVCAR-8): 3.67 µM
- GI50 (SK-OV-3): 15.1 µM
- GI50 (786-0): 2.51 µM
- GI50 (ACHN): 2.08 µM
- GI50 (TK-10): 3.57 µM
- GI50 (UO-31): 2.97 µM
- GI50 (MDA-MB-231/ATCC): 2.83 µM
- GI50 (HS 578T): 13 µM
- GI50 (BT-549): 2.75 µM
- GI50 (MDA-MB-468): 1.93 µM
- Signs of general or systemic toxic effects [2]: no overt signs of general or systemic toxic effects
